This experiment deals with Ph+ CML (CP CML, AP CML and BP CML) and Ph+ ALL. Description: Parts B and C pooled (n=59): disease response. Format: in vivo, human. On the procedure:
Additionally, 71.2% of all the subjects were refractory and/or intolerant to ≥3 TKIs. The MCyR and MMR in subjects with CP CML were 63% and 34.8%, respectively, and those with more aggressive disease viz. AP CML, BP CML and Ph+ ALL were 53.8% and 30.8%, respectively.
The MTD of the compound of Formula I was 204 mg while RP2D was 174 mg QD. Anti-leukemic activity in the form of hematological, cytogenetic and molecular responses was reported across Parts B and C (n=59). Major cytogenetic responses were reported in 61% of subjects while major molecular responses were reported in 33.9% of subjects across doses. […] There is limited evidence of activity in the CML literature in such a heavily pre-treated population.

“And” between values parts separate entries of the source, which are not always exact repeats. Equal values may be shown once.

On to `Cc1ccc(C(=O)NNC(=O)c2c(C)cccc2Cl)cc1C#Cc1cnc2ccccc2c1` [compound of Formula I, N′-(2-chloro-6-methylbenzoyl)-4-methyl-3-[2-(3-quinolyl)ethynyl]-benzohydrazide], for which the “major molecular response deepened to complete molecular response” value (174 mg initial dose, 2 subjects) is 9.1%. Where the note is “174 mg initial dose, 20 out of 24 subjects”, this compound registered a complete hematological response of 83.3%. In addition, the MMR is 37.93% and 37.9% (29 subjects with prior ponatinib (n=11 of 29)); 30.8% (AP CML, BP CML and Ph+ ALL); 34.8% (subjects with CP CML). The compound further displayed an MCyR (29 subjects with prior ponatinib (n=15 of 29)) of 51.7%; an MCyR (AP CML, BP CML and Ph+ ALL) of 53.8%; an MCyR (subjects with CP CML) of 63%. Where the note is “RP2D of 174 mg, independent of prior ponatinib exposure”, this compound displayed a major cytogenetic response of 50%. Where the note is “all subjects, across doses”, the “major cytogenetic response (MCyR)” value is on record as 61%. Besides, the “major molecular response (MMR)” value (all subjects, across doses) was found to be 33.9%.

The record behind these values is patent US20260069584A1, “METHODS OF TREATING CHRONIC MYELOID LEUKEMIA USING THE TYROSINE KINASE INHIBITOR VODOBATINIB” (Sun Pharma Advanced Research Company Ltd., priority 2022, published 2026).
